Assays:
[1] = Brain pharmacokinetics after oral administration; format: in vivo; details: rat, 4 mg/kg oral gavage, brain ECF
Description: A slight delay in Tmax was observed, consistent with the delay of appearance of the drug in systemic circulation.

T98G = test: Cytotoxicity of letrozole (MTT assay); format: cell-based; details: Homo sapiens
C6 glioma [2] = details: 4 mg/kg/day i.v.
Description: 10 days after tumor implantation, anesthetized rats were scanned on μPET scanner (Siemens Inveon) to obtain active tumor volume at Day 0.
Animals were scanned again 8-10 days post treatment to assess change in tumor volume.

[3] = Tumoral versus normal brain ECF pharmacokinetics in C6 glioma-bearing rats; format: in vivo, female Sprague-Dawley rats
Description: Histology of rat brains was performed as outlined in Apparaju et al., Pharmacokinetics of gemcitabine in tumor and non-tumor extracellular fluid of brain: an in vivo assessment in rats employing intracerebral microdialysis, Cancer Chemother. Pharmacol. 61: 223-29 (2008).

MDA-MB-231 = test: Cytotoxicity of letrozole (MTT assay); format: cell-based; details: Homo sapiens
[4] = Plasma protein binding with non-specific binding correction; format: in vitro ADME; details: NSB correction, concentration range 0.1-10 μM
Description: Results are presented as mean±SD.

in vivo = details: female, Sprague-Dawley, rat, iv
Description: (§1) Experiments were carried out in female Sprague-Dawley rats weighing 200-250 g. […] Blood samples from jugular vein cannulation and dialysate samples from microdialysis probe implanted stereotactically into the striatum region of the brain were obtained every 30 minutes over 8 hours and analyzed by HPLC (fluorescence detection, Excitation λ, 230 nm; Emission λ, 295 nm). Microdialysate samples were corrected for in vivo relative recovery (9.5%), measured under similar experimental conditions.
(§2) In order to obtain the correct ECF concentrations from those obtained by bioanalysis of dialysate samples, the correction factor known as “% recovery” is employed. The % recovery for a compound can be obtained by in vivo or in vitro recovery analysis. […] In vitro relative recovery was calculated as follows: % recoveryin vitro=[C(dialysate)/C(reservoir)]×100
(§3) At the end of microdialysis, brain tissues were collected after transcardial perfusion for histological evaluation to confirm formation of tumor in the right striatum and immunohistochemistry to differentiate the expression of aromatase in tumoral and normal brain regions. The pharmacokinetic parameters (including time required to achieve maximum drug levels (Tmax), area under the concentrations-time curve (AUC) over a defined time interval, and peak or maximum concentrations (Cmax)) of both plasma and brain ECF were estimated by non-compartmental analysis using WinNonlin 6.2 (Pharsight Inc.).
(§4) The brain ECF concentrations were time-averaged over the collection interval and corrected for in vivo recovery. […] Results are presented as mean±SD. (N=9 for 4 and 8 mg/kg, N=6 for 6 and 12 mg/kg). […] Simultaneous plasma and ECF pharmacokinetic determination facilitated estimation of the relative brain distribution coefficient, calculated as (AUCbrain ecf/AUCplasma, ub).

[5] = Normal brain ECF (microdialysis) versus plasma pharmacokinetics, IV bolus; details: for Cmax, Brain: brain ECF; for Cmax, Brain / AUC0-8 hr, Plasma ub (Unbound) / Cmax, Plasma ub (Unbound): mean±SD;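 as to all read-outs here: parameters by non-compartmental analysis, mean±SD, brain ECF sampled by microdialysis in freely moving rats and corrected for in vivo recovery, Kp as brain ECF AUC over unbound plasma AUC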
Description: as §1, §2, §3, §4

C6 glioma [6] = test: In vivo anti-tumor efficacy of oral dosed letrozole; parameters: species or system rat; details: 4 mg/kg/day oral gavage stopped after 15 days; scan on Day 45
Description: Rats received tumor implantation as described in Example 6. […] Animals were scanned 5, 10, and 15 days after treatment period to observe change in tumor volume. After 15 days, treatment was stopped. Animals were scanned again on Day 45 (30 days post cessation of treatment).

rat glioma cell line C6 = test: Cytotoxicity of letrozole (MTT assay); format: cell-based
[7] = test system: brain metastases from breast cancer; details: cited from earlier work
[8] = Tumoral versus normal brain ECF pharmacokinetics in C6 glioma-bearing rats; format: in vivo; details: female, Sprague-Dawley, rat, mean±SD; for AUC(0-t): 8 mg/kg IV bolus
U373MG = test: Cytotoxicity of letrozole (MTT assay); format: cell-based; details: Homo sapiens, U373 MG
MCF-7 = test: Cytotoxicity of letrozole (MTT assay); format: cell-based; details: Homo sapiens, MCF7
[9] = molecular target: T1, aromatase activity in rat glioma cell line C6 (Rattus norvegicus, UniProt P22443); test: Aromatase activity (estradiol EIA assay); format: cell-based; details: testosterone 0.1 μM, 2 days incubation
T1 construct: endogenous in cells; host or cells: C6 rat glioma cell line
T1 sequence (P22443 1-508): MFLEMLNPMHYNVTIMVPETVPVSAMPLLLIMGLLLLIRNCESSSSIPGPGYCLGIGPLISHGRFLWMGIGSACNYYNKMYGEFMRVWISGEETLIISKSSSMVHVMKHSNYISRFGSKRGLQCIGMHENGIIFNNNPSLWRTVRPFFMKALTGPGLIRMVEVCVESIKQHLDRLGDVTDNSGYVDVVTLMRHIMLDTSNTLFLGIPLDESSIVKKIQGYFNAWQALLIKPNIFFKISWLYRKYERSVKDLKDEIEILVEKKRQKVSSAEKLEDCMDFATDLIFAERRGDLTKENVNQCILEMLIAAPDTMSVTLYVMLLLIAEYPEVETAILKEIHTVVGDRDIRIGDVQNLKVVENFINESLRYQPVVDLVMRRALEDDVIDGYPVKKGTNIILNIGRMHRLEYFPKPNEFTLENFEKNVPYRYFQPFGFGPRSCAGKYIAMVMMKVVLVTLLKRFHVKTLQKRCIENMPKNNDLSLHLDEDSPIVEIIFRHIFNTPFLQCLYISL

aromatase = test: Aromatase expression in rat glioma tissue (IHC); format: in vivo; details: treatment group versus control group (high expression)
Description: Expression of aromatase in tumors from rats of both control and treatment groups was evaluated using immunohistochemical (IHC analysis). Rat ovary (FIG. 12(A)) was used as a positive control for aromatase expression.

[10] = female, Sprague-Dawley, rat, tumor-free brain ECF (left striatum, control), 8 mg/kg IV bolus, tumor-free brain ECF, mean±SD

For N#Cc1ccc(C(c2ccc(C#N)cc2)n2cncn2)cc1 [letrozole, 4,4′-((1H-1,2,4-triazol-1-yl)methylene)dibenzonitrile], the Cmax [1] was 176 ± 23 ng/mL, the Tmax [1] was 5.75 ± 1.8 h and the AUC(0-t) ([1]; read-out: AUC0-8 hr) was 976 ± 162 ng·h/mL. For the same compound, the IC50 (T98G) was 2.81 µM, the “clinical condition of treated rats” value (C6 glioma [2]; throughout the treatment period) was “no clinical symptoms” and the “tumor volume, treatment rat 8, day 8” value (C6 glioma [2]; Day 0 volume 90.9 mm^3) was 5.8 mm^3. For the same compound, the “tumor volume, treatment rat 4, Day 5” value (C6 glioma [2]; Day 0 volume 100.5 mm^3) was 70.5 mm^3, the “tumor volume, treatment rat 4, Day 10” value (C6 glioma [2]; Day 0 volume 100.5 mm^3) was 18.7 mm^3 and the “Cmax, Tumor” value ([3]; 4 mg/kg IV bolus, tumoral brain ECF, mean±SD) was 354 ± 34 ng/mL. For the same compound, the “Cmax, Tumor” value ([3]; 8 mg/kg IV bolus, tumoral brain ECF, mean±SD) was 1022 ± 204 ng/mL, the Tmax ([3]; female, Sprague-Dawley, rat, tumor-free brain ECF (left striatum, control), 4 mg/kg IV bolus, tumor-free brain ECF, mean±SD) was 1.75 ± 0.5 h and the AUC(0-t) ([3]; female, Sprague-Dawley, rat, tumor-free brain ECF (left striatum, control), 4 mg/kg IV bolus, tumor-free brain ECF, mean±SD, read-out: AUC0-8 hr, Control) was 803 ± 216 ng·h/mL. The Cmax [3, 10] was 475 ± 87 ng/mL, the Tmax [3, 10] was 1.33 ± 0.3 h and the AUC(0-t) ([3]; female, Sprague-Dawley, rat, tumoral brain ECF (right striatum), 4 mg/kg IV bolus, tumoral brain ECF, mean±SD, read-out: AUC0-8 hr, Tumor) was 1160 ± 167 ng·h/mL. The “penetration of BBB and BTB” value ([3]; rats, microdialysis) was “effectively crosses the BBB and BTB”, the IC50 (MDA-MB-231) was greater than 100 µM and the fraction unbound [4] was 0.38. The Kp (in vivo; brain ECF (striatum microdialysate) versus unbound plasma, 4 mg/kg) was 0.51, the Kp (in vivo; brain ECF / unbound plasma, 4 mg/kg) was 0.32 and the Kp (in vivo; brain ECF / unbound plasma, 6 mg/kg) was 0.98. It also gave a Kp (in vivo; brain ECF / unbound plasma, 8 mg/kg) of 0.77, a Kp (in vivo; brain ECF / unbound plasma, 12 mg/kg) of 0.8 and an AUC(0-t) (in vivo; brain ECF, 4 mg/kg) of 583 ± 189 ng·h/mL. For the same compound, the Cmax (in vivo; brain ECF, 4 mg/kg) was 132 ± 79 ng/mL, the Tmax (in vivo; brain ECF, 4 mg/kg) was 1.4 ± 0.6 h and the AUC(0-t) (in vivo; brain ECF, 6 mg/kg) was 2010 ± 137 ng·h/mL. For the same compound, the AUC(0-t) (in vivo; brain ECF, 8 mg/kg) was 2640 ± 286 ng·h/mL, the Tmax (in vivo; brain ECF, 8 mg/kg) was 1.33 ± 0.5 h and the AUC(0-t) (in vivo; brain ECF, 12 mg/kg) was 2550 ± 173 ng·h/mL. For the same compound, the Tmax (in vivo; brain ECF, 12 mg/kg) was 1.3 to 1.5 h, the AUC(0-t) (in vivo; plasma (total), 4 mg/kg) was 4780 ± 932 ng·h/mL and the Cmax (in vivo; plasma (total), 4 mg/kg) was 682 ± 24 ng/mL. The AUC(0-t) (in vivo; plasma (total), 6 mg/kg) was 5980 ± 146 ng·h/mL, the Cmax (in vivo; plasma (total), 6 mg/kg) was 916 ± 71 ng/mL and the AUC(0-t) (in vivo; plasma (total), 8 mg/kg) was 8830 ± 1080 ng·h/mL. For the same compound, the Cmax (in vivo; plasma (total), 8 mg/kg) was 1280 ± 182 ng/mL, the AUC(0-t) (in vivo; plasma (total), 12 mg/kg) was 8060 ± 1420 ng·h/mL and the Cmax (in vivo; plasma (total), 12 mg/kg) was 2070 ± 258 ng/mL. The “Cmax, Brain” value ([5]; 4 mg/kg IV bolus) was 132 ± 79 ng/mL, the “AUC0-8 hr, Plasma ub (Unbound)” value ([5]; 4 mg/kg IV bolus) was 1817 ± 354 ng·h/mL and the “Cmax, Plasma ub (Unbound)” value ([5]; 4 mg/kg IV bolus) was 259 ± 9 ng/mL. For the same compound, the “AUC0-8 hr, Plasma ub (Unbound)” value ([5]; 6 mg/kg IV bolus) was 2272 ± 56 ng·h/mL, the “Cmax, Plasma ub (Unbound)” value ([5]; 6 mg/kg IV bolus) was 348 ± 27 ng/mL and the “Cmax, Brain” value ([5]; 8 mg/kg IV bolus) was 376 ± 61 ng/mL. The “AUC0-8 hr, Plasma ub (Unbound)” value ([5]; 8 mg/kg IV bolus) was 3355 ± 412 ng·h/mL, the “Cmax, Plasma ub (Unbound)” value ([5]; 8 mg/kg IV bolus) was 485 ± 69 ng/mL and the “Cmax, Brain” value ([5]; 12 mg/kg IV bolus) was 631 ± 22 ng/mL. The “AUC0-8 hr, Plasma ub (Unbound)” value ([5]; 12 mg/kg IV bolus) was 3062 ± 539 ng·h/mL, the “Cmax, Plasma ub (Unbound)” value ([5]; 12 mg/kg IV bolus) was 787 ± 98 ng/mL and the “dose linearity of brain and plasma pharmacokinetics” value ([5]; IV bolus 4, 6, 8, 12 mg/kg, linear regression of Cmax and AUC0-8hr) was “linear up to 8 mg/kg and potentially non-linear thereafter”. The “tumor course after cessation of treatment” value (C6 glioma [6]) was “tumors recurred once treatment was stopped”, the IC50 (rat glioma cell line C6) was 0.11 µM and the “clinical response of brain metastases, case report (Madhup et al.)” value ([7]; person, 5-mg tablets once daily, repeat CECT in 2005) was “significant reduction in the brain metastases”. For the same compound, the “clinical response of brain metastases, case report (Goyal et al.)” value ([7]; postmenopausal person, 2.5 mg daily, 20 months later) was “complete recovery of neurological functions”, the Cmax ([8]; tumor-free brain ECF (left striatum, control), 4 mg/kg IV bolus, tumor-free brain ECF) was 183 ± 13 ng/mL and the AUC(0-t) ([8]; tumor-free brain ECF (left striatum, control), tumor-free brain ECF, read-out: AUC0-8 hr, Control) was 2280 ± 428 ng·h/mL. It also gave an AUC(0-t) ([8]; tumoral brain ECF (right striatum), tumoral brain ECF, read-out: AUC0-8 hr, Tumor) of 4700 ± 555 ng·h/mL, an IC50 (U373MG) of 4.39 µM and an IC50 (MCF-7) of less than 0.1 µM. For the same compound, the IC50 [9] was 0.1 µM and the “aromatase expression in tumor sections (IHC)” value (aromatase) was “relatively low aromatase expression”.
